From PubChem BioAssay AID1259411 (Chemical Carcinogenesis Research Information System (CCRIS), 2018)
The source made the active and inactive calls. No rule for the calls is given here.

Test system: rodent carcinogenicity bioassays, tumor incidence
Assay: CCRIS carcinogenicity studies
Summary of the method: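 NCI-built, expert-reviewed records of carcinogenicity and related test outcomes (mutagenicity, tumor promotion/inhibition) compiled from published and report sources, historical span 1985-2011, not updated.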

In the case of `c1ccc2c(c1)-c1cccc3cccc-2c13`, the carcinogen call (Species: MOUSE, Strain/Sex: B6C3F1/MALE, Route: INTRAPERITONEAL, Dose: 0, 400 NMOL IN 35 µL DMSO ON DAYS 1 (1/7 TOTAL DOSE), 8 (2/7 TOTAL DOSE), AND 15 (4/7 TOTAL DOSE) AFTER BIRTH (STUDY DUR) is reported as “inactive; negative”, the carcinogen call (Species: MOUSE, Strain/Sex: CD-1/FEMALE, Route: INTRAPERITONEAL, Dose: 0, 3.46, 17.3 UMOL (TOTAL DOSE) IN DMSO ADMINISTERED ON DAYS 1, 8, AND 15 OF LIFE (STUDY DURATION: 52 WK), Dose: 0, 3.46, 17.3 UMOL (TOTAL DOSE) IN DMSO ADMINISTERED ON DAYS 1, 8, AND 15 OF LIFE (STUDY DURATION: 52 WK), Tumor Site: Type of Lesion: LUNG: TUMOR) is reported as “active; positive” and the carcinogen call (Species: MOUSE, Strain/Sex: CD-1/MALE, FEMALE, Route: INTRAPERITONEAL, Dose: 0, 0.7, 1.75, 3.5 (TOTAL DOSE) ADMINISTERED TO NEWBORN MICE ON DAYS 1, 8, AND 15 OF AGE IN 1/7, 2/7, AND 4/7 DOSES, RESP, Dose: 0, 0.7, 1.75, 3.5 (TOTAL DOSE) ADMINISTERED TO NEWBORN MICE ON DAYS 1, 8, AND 15 OF AGE IN 1/7, 2/7, AND 4/7 DOSES, RESP, Tumor Site: Type of Lesion: LUNG: ADENOMA OR ADENOCARCINOMA) is reported as “active; positive”. For the same compound, the carcinogen call (Species: MOUSE, Strain/Sex: CD-1/MALE, Route: INTRAPERITONEAL, Dose: 0, 3.46, 17.3 UMOL (TOTAL DOSE) IN DMSO ADMINISTERED ON DAYS 1, 8, AND 15 OF LIFE (STUDY DURATION: 52 WK), Dose: 0, 3.46, 17.3 UMOL (TOTAL DOSE) IN DMSO ADMINISTERED ON DAYS 1, 8, AND 15 OF LIFE (STUDY DURATION: 52 WK), Tumor Site: Type of Lesion: LUNG: TUMOR, LIVER: TUMOR) was “active; positive”, the carcinogen call (Species: MOUSE, Strain/Sex: ICR/FEMALE, Route: INTRAPERITONEAL, Dose: 0, 257.6 UG TOTAL DOSE (36.8 UG/5 µL, 73.6 UG/10 µL, 147.2 UG/20 µL DMSO ON DAYS 1, 8 AND 15) ADMINISTERED TO NEWBORN AN, Tumor Site: Type of Lesion: LUNG: ADENOMA) was “active; positive” and the carcinogen call (Species: MOUSE, Strain/Sex: ICR/MALE, Route: INTRAPERITONEAL, Dose: 0, 257.6 UG TOTAL DOSE (36.8 UG/5 µL, 73.6 UG/10 µL, 147.2 UG/20 µL DMSO ON DAYS 1, 8 AND 15) ADMINISTERED TO NEWBORN AN, Tumor Site: Type of Lesion: LUNG: ADENOMA) was “active; positive”. For the same compound, the carcinogen call (Species: MOUSE, Strain/Sex: SWISS/FEMALE, Route: INTRAPERITONEAL, Dose: 0, 100, 500 UG IN DMSO ON DAY 1 OF STUDY FOLLOWED BY 0, 200, 1000 UG ON DAY 8 THEN 0, 400, 2000 UG ON DAY 15 ADMINISTERE, Dose: 0, 100, 500 UG IN DMSO ON DAY 1 OF STUDY FOLLOWED BY 0, 200, 1000 UG ON DAY 8 THEN 0, 400, 2000 UG ON DAY 15 ADMINISTERE, Tumor Site: Type of Lesion: LUNG: ADENOMA OR CARCINOMA) was “active; positive” and the carcinogen call (Species: MOUSE, Strain/Sex: SWISS/MALE, Route: INTRAPERITONEAL, Dose: 0, 100, 500 UG IN DMSO ON DAY 1 OF STUDY FOLLOWED BY 0, 200, 1000 UG ON DAY 8 THEN 0, 400, 2000 UG ON DAY 15 ADMINISTERE, Dose: 0, 100, 500 UG IN DMSO ON DAY 1 OF STUDY FOLLOWED BY 0, 200, 1000 UG ON DAY 8 THEN 0, 400, 2000 UG ON DAY 15 ADMINISTERE, Tumor Site: Type of Lesion: LUNG: ADENOMA OR CARCINOMA) was “active; positive”.

In the case of `CCCCCC[C@@H](O)C/C=C\CCCCCCCC(=O)O` (tested in a mixture with another compound), the carcinogen call (Species: MOUSE, Strain/Sex: C57BL/FEMALE, Route: ORAL, Dose: 0, 5% IN DIET FOR 80 WKS (STUDY DURATION: 80 WKS)) is reported as “inactive; negative”, the carcinogen call (Species: MOUSE, Strain/Sex: C57BL/MALE, Route: ORAL, Dose: 0, 5% IN DIET FOR 80 WKS (study duration: 80 WKS)) is reported as “inactive; negative” and the carcinogen call (Species: RAT, Strain/Sex: WISTAR/FEMALE, Route: ORAL, Dose: 0, 5% IN DIET FOR 2 YR (STUDY DURATION: 2 YR)) is reported as “inactive; negative”. The carcinogen call (Species: RAT, Strain/Sex: WISTAR/MALE, Route: ORAL, Dose: 0, 5% IN DIET FOR 2 YR (STUDY DURATION: 2 YEARS)) was “inactive; negative”.

For `C=Cc1ccccn1`, the carcinogen call (Species: MOUSE, Strain/Sex: STRAIN-A/FEMALE, Route: INTRAPERITONEAL, Dose: 0, 10 UMOL IN 0.1 ML OLIVE OIL 3/WK FOR 20 DOSES (TOTAL DOSE: 200 UMOL) (STUDY DURATION: 27 WK)) was “inactive; negative”.

For `CCCCCCCCCCCC(=O)N(CCO)CCO`, the carcinogen call (Species: MOUSE, Strain/Sex: B6C3F1/FEMALE, Route: DERMAL, Dose: 0, 100, 200 MG/KG BW IN ETHANOL FOR 105 WK (STUDY DURATION: 105 WK), Dose: 0, 100, 200 MG/KG BW IN ETHANOL FOR 105 WK (STUDY DURATION: 105 WK), Tumor Site: Type of Lesion: LIVER: HEPATOCELLULAR ADENOMA, HEPATOCELLULAR ADENOMA OR CARCINOMA, HEPATOCELLULAR CARCINOMA OR HEPATOBLASTOMA, HEPATOCE) was “equivocal”, the carcinogen call (Species: MOUSE, Strain/Sex: B6C3F1/MALE, Route: DERMAL, Dose: 0, 100, 200 MG/KG BW IN ETHANOL FOR 105 WK (STUDY DURATION: 105 WK), Dose: 0, 100, 200 MG/KG BW IN ETHANOL FOR 105 WK (STUDY DURATION: 105 WK)) was “inactive; negative” and the carcinogen call (Species: RAT, Strain/Sex: F344/N/FEMALE, Route: DERMAL, Dose: 0, 50, 100 MG/KG BW IN ETHANOL FOR 105 WK (STUDY DURATION: 105 WK), Dose: 0, 50, 100 MG/KG BW IN ETHANOL FOR 105 WK (STUDY DURATION: 105 WK)) was “inactive; negative”. The carcinogen call (Species: RAT, Strain/Sex: F344/N/MALE, Route: DERMAL, Dose: 0, 50, 100 MG/KG BW IN ETHANOL FOR 104 WK (STUDY DURATION: 104 WK), Dose: 0, 50, 100 MG/KG BW IN ETHANOL FOR 104 WK (STUDY DURATION: 104 WK)) was “inactive; negative”.

`O=NN1CCNCC1` was tested, and the carcinogen call (Species: RAT, Strain/Sex: F344/FEMALE, Route: INTRAVESICAL, Dose: 0, 3.8 G (TOTAL DOSE) INJECTED INTO BLADDER 2/WK OVER 48 WK (STUDY DURATION: 102 WK), Tumor Site: Type of Lesion: NASAL CAVITY: TUMOR, BLADDER: TUMOR) was “active; positive”.

With `O=C1c2cccc(O)c2C(=O)c2c(O)cccc21` the carcinogen call (Species: MOUSE, Strain/Sex: C3H/HEN/MALE, Route: ORAL, Dose: 0, 0.2% IN DIET FOR DURATION OF STUDY (STUDY DURATION: 540 D), Tumor Site: Type of Lesion: LIVER: HEPATOCELLULAR CARCINOMA) was “active; positive” and the carcinogen call (Species: RAT, Strain/Sex: ACI/MALE, Route: ORAL, Dose: 0, 1% IN DIET FOR DURATION OF STUDY (STUDY DURATION: 16 MO), Tumor Site: Type of Lesion: INTESTINE: ADENOMA OR CARCINOMA) was “active; positive”.

`C=CN(C)N=O` was tested, and the carcinogen call (Species: RAT, Route: INHALATION, Tumor Site: Type of Lesion: NASAL CAVITY) was “active; positive” and the carcinogen call (Species: RAT, Route: ORAL, Tumor Site: Type of Lesion: ESOPHAGUS) was “active; positive”.

In the case of `CC(Cl)CCl` (configuration not stated), the carcinogen call (Species: MOUSE, Strain/Sex: B6C3F1/FEMALE, Route: GAVAGE, Dose: 0, 125, 250 MG/KG IN CORN OIL 5 D/WK FOR 103 WK (STUDY DURATION: 104 WK), Dose: 0, 125, 250 MG/KG IN CORN OIL 5 D/WK FOR 103 WK (STUDY DURATION: 104 WK), Tumor Site: Type of Lesion: LIVER: ADENOMA, ADENOMA OR CARCINOMA) is reported as “active; positive”, the carcinogen call (Species: MOUSE, Strain/Sex: B6C3F1/MALE, Route: GAVAGE, Dose: 0, 125, 250 MG/KG IN CORN OIL 5 D/WK FOR 103 WK (STUDY DURATION: 104 WK), Dose: 0, 125, 250 MG/KG IN CORN OIL 5 D/WK FOR 103 WK (STUDY DURATION: 104 WK), Tumor Site: Type of Lesion: LIVER: ADENOMA, ADENOMA OR CARCINOMA) is reported as “active; positive” and the carcinogen call (Species: RAT, Strain/Sex: F344/FEMALE, Route: GAVAGE, Dose: 0, 125, 150 MG/KG IN CORN OIL 5 D/WK FOR 103 WK (STUDY DURATION: 104 WK), Dose: 0, 125, 150 MG/KG IN CORN OIL 5 D/WK FOR 103 WK (STUDY DURATION: 104 WK), Tumor Site: Type of Lesion: MAMMARY GLAND: ADENOCARCINOMA) is reported as “equivocal”. The carcinogen call (Species: RAT, Strain/Sex: F344/MALE, Route: GAVAGE, Dose: 0, 62, 125 MG/KG IN CORN OIL 5 D/WK FOR 103 WK (STUDY DURATION: 104 WK), Dose: 0, 62, 125 MG/KG IN CORN OIL 5 D/WK FOR 103 WK (STUDY DURATION: 104 WK)) was “inactive; negative”.

In the case of `CC(=O)OCc1c2ccccc2c2ccc3cccc4ccc1c2c43`, the carcinogen call (Species: MOUSE, Strain/Sex: B6C3F1/MALE, Route: INTRAPERITONEAL, Dose: 0, 0.0025, 0.005 UMOL/G ONCE AT 12 DAYS OF AGE (STUDY DURATION: 10 MO), Dose: 0, 0.0025, 0.005 UMOL/G ONCE AT 12 DAYS OF AGE (STUDY DURATION: 10 MO), Tumor Site: Type of Lesion: LIVER: HEPATOMA) is reported as “active; positive”.
